Results on 19 compounds are retold here after patent US20040014764A1, “N-myristoyltransferase inhibitor compositions and methods of use” (priority 2002, published 2004).

One assay relates to endogenous NMT. Description: N-myr-GFP localization in transfected CV-1 cells (fluorescence microscopy). The class given is cell-based, monkey. As for the experimental part:
Cellular effects of COPP compounds. […] To determine their efficacy in intact cells, a novel assay was developed in which the N-terminus of enhanced green fluorescent protein (GFP) was modified to allow its myristoylation (N-myr-GFP) by endogenous NMT. To begin, the myristoylation sequence […] was added to the N-terminus of green fluorescent protein (N-myr-GFP) using techniques familiar to those practiced in the art. Since GFP is intrinsically fluorescent, the sites of its intracellular distribution can be visualized using fluorescence microscopy. When a plasmid containing the N-myr-GFP sequence is transfected into CV-1 cells, the GFP encoded by this construct is myristoylated by endogenous NMT causing it to localize to the plasma membrane, as indicated by the bright fluorescence at the cell periphery (FIG. 2). […] This method provides evidence that the inhibitors detected in the screen with recombinant NMT can also block endogenous NMT activity in whole cells.

Assay [1] has as its target T1, recombinant human NMT (Homo sapiens, UniProt P30419).
T1 sequence (P30419 1-496): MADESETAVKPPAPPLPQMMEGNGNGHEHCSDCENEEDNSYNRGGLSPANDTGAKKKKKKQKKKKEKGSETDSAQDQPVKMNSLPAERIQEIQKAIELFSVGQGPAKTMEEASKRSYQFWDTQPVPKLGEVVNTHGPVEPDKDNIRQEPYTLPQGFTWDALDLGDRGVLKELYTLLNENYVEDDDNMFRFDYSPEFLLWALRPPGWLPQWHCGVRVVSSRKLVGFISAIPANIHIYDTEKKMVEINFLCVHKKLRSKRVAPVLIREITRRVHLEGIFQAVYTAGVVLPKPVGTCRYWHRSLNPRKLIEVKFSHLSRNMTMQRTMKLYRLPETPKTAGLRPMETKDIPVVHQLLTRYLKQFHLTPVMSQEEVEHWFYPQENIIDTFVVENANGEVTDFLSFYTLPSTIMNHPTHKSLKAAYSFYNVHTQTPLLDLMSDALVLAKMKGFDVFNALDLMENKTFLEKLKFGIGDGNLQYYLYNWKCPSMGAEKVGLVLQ
Description: NMT screening assay with purified recombinant GST-NMT-1, [3H]-myristoyl-CoA and biotinylated peptide.
Description: Development of the NMT screening assay. […] The cDNA encoding enzymatically active human NMT-1 was subcloned into the pGEX bacterial expression evector, producing an NMT-glutathione-S-transferase4 (GST) fusion protein. This protein was expressed in E. coli using methods well known to those trained in the art, purified using a glutathione resin, and stored at −80° C. until use. Enzyme activity was measured using the recombinant NMT, a peptide of the sequence [sequence]-biotin, wherein amino acids are designated by their recognized single letter code and the terminal lysine residue is conjugated with biotin, [^3H]-myristoyl-CoA, and a test compound or the solvent alone (DMSO). Reaction mixtures are incubated for a specific period of time in 96-well plates coated with streptavidin, which may be purchased from commercial sources including Sigma Chemical Company. […] The streptavidin-biotin interaction can then be disrupted with the addition of 0.1 M glycine, pH 2.8, and the solution containing [^3H]myristoyl-peptide can be transferred to scintillation vials. Alternately, determination of the amount of [^3H]myristoyl-peptide in the samples can be determined using scintillation proximity technology according to methods well known to those who practice the art.
Each compound was tested at a final concentration of 5 μg/ml, which corresponds to concentrations of 10-20 μM. Samples that inhibited NMT activity by at least 60% were then deconvoluted, where each of the 8 compounds was analyzed individually.

Assay [2] concerns T24 human bladder carcinoma cells. The experiment in a line: Cytotoxicity assay, sulforhodamine B binding. As to conditions: T-24, 48 h, read-out: Cytotoxicity IC50.
Description: To determine the abilities of NMT inhibitors to affect the growth of hyperproliferative cells, cytotoxicity assays were performed using the T24 human bladder carcinoma cell line. […] In these assays, T24 cells growing in tissue culture in the presence of 10% fetal bovine serum are treated with varying concentrations of a test compound for 48 hours. At the end of the treatment period, the number of surviving tumor cells is quantified using any of a variety of methods well known in the field. In these, experiments, the number of surviving cells was determined using the sulforhodamine B binding assay.
Assay [3] has as its system panel of human tumor cell lines. Description: Proliferation of a panel of human tumor cell lines (summary). The assay is classed as cell-based. As to conditions: range over the 8 cell lines of TABLE 3, read-out: IC50s across the tumor cell line panel. As for the experimental part: (§1) Antiproliferative effects of compound 537.
(§2) Additionally, the effects of compound 537 on the proliferation of a panel of human tumor cell lines were determined. […] Of interest, colon-derived HT29 cells were most sensitive to compound 537, and previous work has indicated a close association of activation of Src (which requires myristoylation for activity) and colon cancer (Raju et al., Exp. Cell Res. 235: 145 (1997)).

For a further assay, the target named is T2, GST-hNMT-1 (Homo sapiens, UniProt P30419).
T2 construct: made in house; host or cells: E. coli
T2 sequence (P30419 1-496): T1 sequence (P30419 1-496)
Description: Peptide and myristoyl-CoA substrate competition experiments (Michaelis-Menten). The assay is classed as biochemical. As for the experimental part:
Development of the NMT screening assay.
Mechanism of inhibition of NMT by COPP compounds. The mechanism of inhibition by compound 537 was examined using peptide and myristoyl-CoA substrate competition experiments with GST-hNMT-l. In the absence of inhibitor, the KM for myristoyl-CoA compares very well with the literature value of 2.6 μM (Rocque et al., J Biol. Chem. 268: 9964 (1993)). […] However, it is well established that the affinity for the peptide is highly sequence-sensitive, so that KMS >100 μM are not unusual. For studies of the ability of compound 537 to interact with the peptide-binding site of NMT, the peptide concentration was varied from 0 to 500 μM, while the myristoyl-CoA concentration was kept constant in the assays. The presence of compound 537 at its IC50 concentration […] the KM for the peptide relative to the solvent control. […] To determine the effects of compound 537 on the myristoyl-CoA binding site, the concentration of myristoyl-CoA was varied from 0 to 100 μM, while the peptide concentration was held constant in the assays. […] Overall, these kinetic analyses indicate that compound 537, and most likely the rest of the COPP family, inhibit NMT activity by competing with the substrate peptide for binding to the enzyme.

A further assay concerns DU145. The experiment in a line: Antiproliferative activity toward human tumor cell lines. The assay is classed as cell-based. As to conditions: DU-145, DU145, Prostate, mean ± SEM of 4 experiments. As for the experimental part: as §1, §2
In another assay the test system is MDA-MB-231. The assay is described as above. The class given is cell-based. As to conditions: MDA-MB-231, Breast, mean ± SEM of 4 experiments. As for the experimental part:
as §1, §2

The subject of the next assay is Panc-1. The description is as above. The assay is classed as cell-based. As to conditions: Panc-1, Pancreas, mean ± SEM of 4 experiments. As for the experimental part: as §1, §2
A further assay has as its system HT29. Described as above. The class given is cell-based. As to conditions: HT-29, HT29, Colon, mean ± SEM of 4 experiments. As for the experimental part:
as §1, §2

For a further assay, the system named is SKOV3. The assay is described as above. The class given is cell-based. As to conditions: SK-OV-3, SKOV3, Ovary, mean ± SEM of 4 experiments. As for the experimental part:
as §1, §2

For a further assay, the system named is MCF-7. Described as above. The class given is cell-based. As to conditions: MCF7, MCF-7, Breast, mean ± SEM of 4 experiments. As for the experimental part:
as §1, §2

In another assay the test system is A-498. Described as above. The class given is cell-based. As to conditions: A498, A-498, Kidney, mean ± SEM of 4 experiments. As for the experimental part:
as §1, §2

The subject of a further assay is HepG2. Described as above. The class given is cell-based. As to conditions: HepG2, Liver, mean ± SEM of 4 experiments. As for the experimental part: as §1, §2
In assay [4] the target is T1, recombinant human NMT. More on the design: made in house; host or cells: E. coli. As to conditions: published value (Boutin et al. 1991); read-out: published IC50 concentration for NMT; cited from earlier work.

Molecules are shown by their SMILES. Read-outs that look alike come from different tables or passages of the source.

As for `CCCCCCCCCCCCC(O)C(=O)O` (stereo not drawn) [2-hydroxymyristic acid, reference compound], the “intracellular distribution of N-myr-GFP” value in the assay on endogenous NMT (millimolar concentrations) was “redistribution of GFP to the cytosol”.
With `COc1ccc(CN2CCN3CCCC3C2C2CCCCC2)cc1` (stereo not drawn) [Compound 486], the IC50 at recombinant human NMT [1] was 419 ± 30 µM; in assay [2], 8.1 µM.
With `c1cncc(N2CCN3CCCC3C2C2CCCCC2)c1` (stereo not drawn) [Compound 522], the figures for the IC50 (on recombinant human NMT [1]; in [2]) were 590 ± 127 µM and 400 µM, respectively.
Consider `CCn1c2ccccc2c2cc(CN3CCN4CCCC4C3C3CCCCC3)ccc21` (stereo not drawn) [Compound 537], for which the IC50 in [3] was 3.7 to 14.8 µM; on recombinant human NMT [1], 6 µM; in assay [2] it was 1.8 µM; in the assay with DU145, 14.8 ± 2.9 µM; in the assay on MDA-MB-231 it was 11.9 ± 1.3 µM; in the assay with Panc-1, 12.6 ± 1.3 µM. Moreover, the IC50 worked out at 3.7 ± 0.6 µM with HT29; 13.2 ± 3.6 µM in the assay on SKOV3; 8 ± 0.9 µM in the assay on MCF-7; 5.8 ± 1.4 µM in the assay on A-498; 4.4 ± 1.2 µM in the assay with HepG2. Also, the “Peptide Vmax” value on GST-hNMT-1 (in presence of compound at its IC50 concentration, peptide varied 0 to 500 μM, myristoyl-CoA constant) came out at 0.076 ± 0.006 pmol/min. Also, at GST-hNMT-1 (in presence of compound, myristoyl-CoA varied 0 to 100 μM, peptide constant), the “Myristoyl-CoA Vmax” value is on record as 0.034 ± 0.001 pmol/min. Besides, the “mechanism of inhibition with respect to the lipid substrate” value at GST-hNMT-1 (myristoyl-CoA competition) is “noncompetitive inhibitor”. In addition, the “mechanism of inhibition with respect to the peptide substrate” value at GST-hNMT-1 (peptide competition) is “competitive inhibitor”. For the same compound, the “intracellular distribution of N-myr-GFP” value in the assay with endogenous NMT (micromolar concentrations) is given as “displacement of N-myr-GFP to the cytosol”.
Regarding `c1ccc2cc(N3CCN4CCCC4C3C3CCCCC3)ccc2c1` (stereo not drawn) [Compound 542], the IC50 is 42 ± 5 µM at recombinant human NMT [1] and 1.3 µM in assay [2].
For `Brc1csc(CN2CCN3CCCC3C2C2CCCCC2)c1` (stereo not drawn) [Compound 555], the IC50 on recombinant human NMT [1] was above 8000 µM; in assay [2] it was 1.2 µM.
As for `Cc1ccc2occ(CN3CCN4CCCC4C3C3CCCCC3)c(=O)c2c1` (stereo not drawn) [Compound 591], the IC50 on recombinant human NMT [1] was above 8000 µM; in [2] it was 9.7 µM.
For the compound `O=[N+]([O-])c1ccccc1-c1ccc(CN2CCN3CCCC3C2C2CCCCC2)o1` (stereo not drawn) [Compound 615], the IC50 on recombinant human NMT [1] was 45 ± 2 µM; in assay [2], 1.4 µM.
The matching figures for `O=[N+]([O-])c1cccc(-c2ccc(CN3CCN4CCCC4C3C3CCCCC3)o2)c1` (stereo not drawn) [Compound 616]: 41 ± 1 µM and 2.1 µM.
The matching figures for `O=[N+]([O-])c1ccc(-c2ccc(CN3CCN4CCCC4C3C3CCCCC3)o2)cc1` (stereo not drawn) [Compound 617]: 36 ± 4 µM and 4.6 µM.
As for `COc1ccc(CN2CCN3CCCC3C2C2CCCCC2)c2ccccc12` (stereo not drawn) [Compound 621], the IC50 turned out to be 35 ± 5 µM at recombinant human NMT [1] and 0.7 µM in assay [2].
`COc1ccc2ccccc2c1CN1CCN2CCCC2C1C1CCCCC1` (stereo not drawn) [Compound 622]: the IC50 is 28 ± 8 µM on recombinant human NMT [1] and 1.5 µM in assay [2].
The matching figures for `C1CCC(C2C3CCCN3CCN2C2CCCCC2)CC1` (stereo not drawn) [Compound 624]: 113 ± 7 µM and 1.6 µM.
The matching figures for `c1cc2ccc3ccc(CN4CCN5CCCC5C4C4CCCCC4)c4ccc(c1)c2c34` (stereo not drawn) [Compound 629]: 70 ± 8 µM and 3 µM.
Turning to `CC1=C(CCN2CCN3CCCC3C2C2CCCCC2)C(C)(C)CCC1` (stereo not drawn) [Compound 638], the results for the IC50 (on recombinant human NMT [1]; in assay [2]) were 43 ± 4 µM and 1.4 µM, respectively.
As for `COc1ccccc1/C=C/CN1CCN2CCCC2C1C1CCCCC1` (stereo not drawn) [Compound 640], the IC50 was 1600 ± 200 µM on recombinant human NMT [1] and 2.8 µM in [2].
The matching figures for `CC1C2CCCN2CCN1Cc1cccc(Oc2ccc(Cl)cc2)c1` (stereo not drawn) [Compound 726, 2-[3-(4-chloro-phenoxy)-benzyl]-1-methyl-octahydro-pyrrolo[1,2-a]pyrazine]: 40 ± 6 µM and 1.5 µM.
Take `CC1C2CCCN2CCN1Cc1c2ccccc2c(Cl)c2ccccc12` (stereo not drawn) [Compound 766]: the IC50 at recombinant human NMT [1] is 47 ± 7 µM; in assay [2], 4.2 µM.
Consider `CCCCCCCCCCCCCC(=O)N[C@@H](Cc1ccccc1)C(=O)O` [myristoylphenylalanine, reference compound], for which the inhibition (usually the share of the control response that was lost under treatment) at 100 µM at recombinant human NMT [1] (read-out: inhibition of recombinant human NMT) was around 50%. On recombinant human NMT [4], the IC50 is 100 µM.
